{"source": "patent US6489316B2", "about": "“6-(spirocyclopropyl) penicillanic acid 4, 4-dioxides” (priority 2000, dated 2002)", "key": {"[1]": {"target": "Class C(AmpC) beta-lactamase (UniProt P00811)", "assay": "beta-lactamase inhibition, spectrophotometric with nitrocefin", "type": "biochemical", "conditions": "for pIC50: 10-minute preincubation of enzyme with inhibitor at 25° C., nitrocefin substrate; for inhibition of class C(AmpC) enzymes, in words: summary of Table I"}, "[2]": {"target": "Class A(TEM-1) beta-lactamase (Escherichia coli, UniProt P62593)", "sequence (P62593 24-286 limits assumed)": "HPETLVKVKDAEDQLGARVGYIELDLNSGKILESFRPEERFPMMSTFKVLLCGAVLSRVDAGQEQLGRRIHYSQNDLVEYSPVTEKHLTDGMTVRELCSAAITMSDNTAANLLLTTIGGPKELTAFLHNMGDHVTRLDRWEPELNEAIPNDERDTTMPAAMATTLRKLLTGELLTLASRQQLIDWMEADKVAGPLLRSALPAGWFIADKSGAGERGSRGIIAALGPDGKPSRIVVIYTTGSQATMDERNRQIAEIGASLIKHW", "assay": "beta-lactamase inhibition, spectrophotometric with nitrocefin", "type": "biochemical", "conditions": "for pIC50: 10-minute preincubation of enzyme with inhibitor at 25° C., nitrocefin substrate; for inhibition of class A(TEM-1) enzymes, in words: summary of Table I"}, "E. coli + (AmpC)": {"system": "E. coli + (AmpC)", "assay": "microbial assay, MIC in broth, antibiotic with inhibitor 1:1", "type": "cell-based", "conditions": "Escherichia coli, serial two-fold dilutions", "experimental": "(§1) Representative Example 9 was tested in a microbial assay in combination with the penicillin antibiotic Piperacillin. In these tests, minimum inhibitory concentration(MIC) are determined in broth using serial two-fold dilutions with a 1:1 ratio of Piperacillin to inhibitor(N. A. Kuck; N. V. Jacobs; P. J. Peterson; W. J. Weiss; and R. T. Testa, in “Antimicrobial Agents and Chemotherapy”, Vol. 33, 1989, pages 1964-1969)."}, "E. coli 300 + (AmpC)": {"system": "E. coli 300 + (AmpC)", "assay": "microbial assay, MIC in broth, antibiotic with inhibitor 1:1", "type": "cell-based", "conditions": "for MIC: Escherichia coli, Table II, combinations 1:1 ratio antibiotic to inhibitor", "experimental": "as §1"}, "E. coli GC 6265 (TEM-1)": {"system": "E. coli GC 6265 (TEM-1)", "assay": "microbial assay, MIC in broth, antibiotic with inhibitor 1:1", "type": "cell-based", "conditions": "for MIC: Escherichia coli, Table II, combinations 1:1 ratio antibiotic to inhibitor", "experimental": "as §1"}, "[3]": {"system": "P. aeroginosa (AmpC derepressed)", "assay": "microbial assay, MIC in broth, antibiotic with inhibitor 1:1", "type": "cell-based", "conditions": "serial two-fold dilutions", "experimental": "as §1"}, "S. marcescens (AmpC)": {"system": "S. marcescens (AmpC)", "assay": "microbial assay, MIC in broth, antibiotic with inhibitor 1:1", "type": "cell-based", "conditions": "Serratia marcescens, serial two-fold dilutions", "experimental": "as §1"}, "E. coli + (TEM-1)": {"system": "E. coli + (TEM-1)", "assay": "microbial assay, MIC in broth, antibiotic with inhibitor 1:1", "type": "cell-based", "conditions": "Table III, serial two-fold dilutions, combinations 1:1 ratio Piperacillin to inhibitor", "experimental": "as §1"}, "[4]": {"target": "Class B(Imi-1) beta-lactamase (Enterobacter cloacae, UniProt Q46991)", "sequence (Q46991 entry or part of it)": "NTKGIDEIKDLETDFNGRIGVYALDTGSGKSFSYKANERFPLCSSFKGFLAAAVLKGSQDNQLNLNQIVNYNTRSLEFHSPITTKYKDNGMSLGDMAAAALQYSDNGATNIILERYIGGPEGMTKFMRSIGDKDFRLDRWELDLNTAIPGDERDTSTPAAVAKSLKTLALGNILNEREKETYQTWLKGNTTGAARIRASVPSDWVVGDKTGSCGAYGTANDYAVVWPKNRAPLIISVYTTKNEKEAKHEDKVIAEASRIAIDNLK", "assay": "beta-lactamase inhibition, spectrophotometric with nitrocefin", "type": "biochemical", "conditions": "10-minute preincubation of enzyme with inhibitor at 25° C., nitrocefin substrate"}, "[5]": {"conditions": "Table II, combinations 1:1 ratio antibiotic to inhibitor"}, "[6]": {"conditions": "broth, serial two-fold dilutions"}, "[7]": {"conditions": "Table II, combinations 1:1 ratio antibiotic to inhibitor, read-out: MIC P. aeroginosa (AmpC derepressed)"}, "[8]": {"conditions": "Table III, combinations 1:1 ratio Piperacillin to inhibitor"}, "[9]": {"conditions": "Table III, broth, serial two-fold dilutions, combinations 1:1 ratio Piperacillin to inhibitor"}, "[10]": {"conditions": "summary of Table II, combined with piperacillin or cefotaxime"}}, "note": "pIC50: −log10 of the molar value. Read-outs that look alike come from different tables or passages of the source."}
{"smiles": "CC1(C)[C@H](C(=O)O)N2C(=O)C[C@H]2S1(=O)=O", "note": "[Sulbactam, reference compound]", "values": [{"measurement": "pIC50", "setting": "[1]", "result": 4.18}]}
{"smiles": "CC(C)(C)[Si](C)(C)OC1C[C@@]12C(=O)N1[C@@H](C(=O)O)C(C)(C)S(=O)(=O)[C@@H]12", "note": "(single isomer, unassigned) [Example 8]", "values": [{"measurement": "pIC50", "setting": "[1]", "result": 5.72}, {"measurement": "pIC50", "setting": "[2]; IC50 Class A(TEM-1)", "result": 4.77}]}
{"smiles": "CO/N=C(\\C(=O)N[C@@H]1C(=O)N2C(C(=O)O)=C(COC(C)=O)CS[C@H]12)c1csc(N)n1", "note": "[Cefotaxime, cefotaxime]", "values": [{"measurement": "MIC", "setting": "E. coli + (AmpC); [5]", "result": "> 64", "unit": "µg/mL"}, {"measurement": "MIC", "setting": "E. coli 300 + (AmpC); [6]", "result": 16, "unit": "µg/mL"}, {"measurement": "MIC", "setting": "E. coli GC 6265 (TEM-1); [6]", "result": 64, "unit": "µg/mL"}, {"measurement": "MIC", "setting": "[3]; [7]", "result": "> 64", "unit": "µg/mL"}, {"measurement": "MIC", "setting": "S. marcescens (AmpC); [5]", "result": 8, "unit": "µg/mL"}]}
{"smiles": "CC1(C)C(C(=O)O)N2C(=O)C3(CC3OC3CCCCC3)C2S1(=O)=O", "note": "(single isomer, unassigned) [Example 13]", "values": [{"measurement": "pIC50", "setting": "[1]", "result": 7.43}, {"measurement": "inhibition of class C(AmpC) enzymes, in words", "setting": "[1]", "result": "very potent inhibitors"}, {"measurement": "pIC50", "setting": "[2]; IC50 Class A(TEM-1)", "result": 6.29}, {"measurement": "inhibition of class A(TEM-1) enzymes, in words", "setting": "[2]", "result": "potent inhibitors"}]}
{"smiles": "CC1(C)C(C(=O)O)N2C(=O)C3(CC3OC3CCCCC3)C2S1(=O)=O", "note": "(single isomer, unassigned) [Example 12]", "values": [{"measurement": "pIC50", "setting": "[1]", "result": 4.49}, {"measurement": "pIC50", "setting": "[2]; IC50 Class A(TEM-1)", "result": 5.77}]}
{"smiles": "CC(C)(C)[Si](C)(C)OC1CC12C(=O)N1[C@@H](C(=O)O)C(C)(C)S(=O)(=O)[C@@H]12", "note": "(single isomer, unassigned) [Example 10]", "values": [{"measurement": "pIC50", "setting": "[1]", "result": 6.46}, {"measurement": "inhibition of class C(AmpC) enzymes, in words", "setting": "[1]", "result": "very potent inhibitors"}, {"measurement": "pIC50", "setting": "[2]; IC50 Class A(TEM-1)", "result": 4.92}]}
{"smiles": "CCN1CCN(C(=O)N[C@@H](C(=O)N[C@@H]2C(=O)N3[C@@H]2SC(C)(C)[C@@H]3C(=O)O)c2ccccc2)C(=O)C1=O", "note": "[Piperacillin]", "values": [{"measurement": "MIC", "setting": "E. coli + (AmpC); [5]", "result": "> 64", "unit": "µg/mL"}, {"measurement": "MIC", "setting": "E. coli + (AmpC); [8]", "result": 32, "unit": "µg/mL"}, {"measurement": "MIC E. coli + (TEM-1)", "setting": "E. coli + (TEM-1)", "result": ">64", "unit": "µg/mL"}, {"measurement": "MIC", "setting": "E. coli 300 + (AmpC); [6]", "result": 32, "unit": "µg/mL"}, {"measurement": "MIC E. coli 300 + (AmpC)", "setting": "E. coli 300 + (AmpC); [9]", "result": 32, "unit": "µg/mL"}, {"measurement": "MIC", "setting": "E. coli GC 6265 (TEM-1); [6]", "result": "> 64", "unit": "µg/mL"}, {"measurement": "MIC E. coli GC 6265 (TEM-1)", "setting": "E. coli GC 6265 (TEM-1); [9]", "result": ">64", "unit": "µg/mL"}, {"measurement": "MIC", "setting": "[3]; [7]", "result": "> 64", "unit": "µg/mL"}, {"measurement": "MIC", "setting": "[3]; Table III, combinations 1:1 ratio Piperacillin to inhibitor, read-out: MIC P. aeroginosa", "result": "> 64", "unit": "µg/mL"}, {"measurement": "MIC", "setting": "S. marcescens (AmpC); [5]", "result": 32, "unit": "µg/mL"}, {"measurement": "MIC", "setting": "S. marcescens (AmpC); [8]", "result": 64, "unit": "µg/mL"}]}
{"smiles": "CC(C)(C)[Si](C)(C)O[C@H]1C[C@]12C(=O)N1[C@@H](C(=O)[O-])C(C)(C)S(=O)(=O)[C@@H]12.[Na+]", "note": "[Example 9, (1R,2S,5R)-2-[(tert-Butyldimethylsilyl)oxy]-3,3-dimethyl-7-oxospiro[cyclopropane-1,6-[4]thia[1]azabicyclo[3.2.0]-heptane]-2-carboxylic acid, Sodium Salt, 4,4-dioxide]", "values": [{"measurement": "pIC50", "setting": "[1]", "result": 7.68}, {"measurement": "inhibition of class C(AmpC) enzymes, in words", "setting": "[1]", "result": "very potent inhibitors"}, {"measurement": "pIC50", "setting": "[2]; read-out: IC50 Class A(TEM-1)", "result": 6.19}, {"measurement": "inhibition of class A(TEM-1) enzymes, in words", "setting": "[2]", "result": "potent inhibitors"}, {"measurement": "pIC50", "setting": "[4]", "result": 4.92}, {"measurement": "activity as a beta-lactamase inhibitor with E.coli 300+(AmpC), in words", "setting": "E. coli 300 + (AmpC); [10]", "result": "very potent activity"}, {"measurement": "activity as a beta-lactamase inhibitor with E.coli GC6265 (TEM-1), in words", "setting": "E. coli GC 6265 (TEM-1); [10]", "result": "very potent activity"}]}
{"smiles": "CC1(C)C(C(=O)O)N2C(=O)C3(CC3OC3CCCCC3)C2S1(=O)=O", "note": "(single isomer, unassigned) [Example 14]", "values": [{"measurement": "pIC50", "setting": "[1]", "result": 5.50}, {"measurement": "pIC50", "setting": "[2]; IC50 Class A(TEM-1)", "result": 3.89}]}
